Read-outs that look alike come from different tables or passages of the source.
Experiments:
[1] = cited from earlier work
[2] = system: Stage IV Adenocarcinoma of Lung; experiment: Treatment of Patient X with Stage IV adenocarcinoma of lung, followed by repeat PET CT; format: in vivo, human
Procedure: Commenced RAS modulation: • Aspirin: 300mg once daily • Start Date: 20 Jun. 2015
2015 • + Cilazapril: 2.5 mg once daily • Start Date: 26 Nov. 2015
2015 • + Doxycycline: 100mg once daily • Start Date: 20 Feb. 2016

[3] = piperine included in the curcumin formulation; cited from earlier work
[4] = system: Squamous Cell Carcinoma; conditions: propranolol 160 mg daily with curcumin and celebrex, five weeks; reduced to 40 mg daily
[5] = system: several tumoral cell lines; conditions: cited from earlier work

With `CCOC(=O)[C@H](CCc1ccccc1)N[C@H]1CCCN2CCC[C@@H](C(=O)O)N2C1=O` [Cilazapril, (4S,7S)-7-[[(2S)-1-Ethoxy-1-oxo-4-phenylbutan-2-yl]amino]-6-oxo-1,2,3,4,7,8,9,10-octahydropyridazino[1,2-a]diazepine-4-carboxylic acid] as the compound, how does the Common side effects ([1]; in vivo) read?
Its Common side effects is “Fatigue, hypotension, dyspepsia, nausea and other gastrointestinal disturbances, headache, rash and coughing”.

What about the Rare side effects ([1]; in vivo) of the same compound?
Its Rare side effects is “Skin rashes including erythema multiforme and toxic epidermal necrolysis may occur. Photosenstivity, alopecia and other hypersensitivity reactions”.

And the Uncommon side effects ([1]; in vivo)?
The Uncommon side effects was “Tachycardia, palpitations and chest pain”.

Which “Repeat PET CT” value ([2]; 28 Jul. 2015, Aspirin 300mg once daily from 20 Jun. 2015) does the source give for `CC(=O)Oc1ccccc1C(=O)O` [Aspirin, acetylsalicylic acid] here?
Its value is “static appearance with low levels of activity remaining at both the primary and left lung metastasis sites”.

What about the Common side effects ([1]; in vivo) of the same compound?
Its Common side effects is “Increased bleeding tendencies, dyspepsia”.

And the Rare side effects ([1]; in vivo)?
Its Rare side effects is “Thrombocytopenia, agranulocytosis, aplastic anaemia, hypersensitivity reactions, angio-oedema, allergic oedema, anaphylactic reactions including shock”.

What about the Uncommon side effects ([1]; in vivo) of the same compound?
The Uncommon side effects was “Urticaria, rhinitis, dyspnoea”.

For `CCCCc1nc(Cl)c(CO)n1Cc1ccc(-c2ccccc2-c2nn[nH]n2)cc1` [Losartan], which Common side effects ([1]; in vivo) is on record?
Its Common side effects is “Cold or flu symptoms such as stuffy nose, sneezing, sore throat, fever, muscle cramps, pain in the legs or back, stomach pain, diarrhoea, headache, dizziness, tired feeling, sleep problems (insomnia)”.

With `O=C(C=CC=Cc1ccc2c(c1)OCO2)N1CCCCC1` [piperine, 1-[5-(1,3-Benzodioxol-5-yl)-1-oxo-2,4-pentadienyl]piperidine] as the compound, how does the “Effect on bioavailability of Curcumin” value [3] read?
Its value is “increases the bioavailability of Curcumin”.

Which “Adverse effects leading to dose reduction” value [4] does the source give for `CC(C)NCC(O)COc1cccc2ccccc12` (racemic) [Propranolol, (RS)-1-(1-methylethylamino)-3-(1-naphthyloxy)propan-2-ol] here?
The value was “feeling ‘weak in the legs’ and had two episodes of falls”.

What about the Uncommon side effects ([1]; Uncommon (0.1-0.9%)) of the same compound?
The Uncommon side effects was “Gastrointestinal disturbance, such as nausea, vomiting, diarrhoea”.

Which results are given for `CN(C)C(=N)N=C(N)N` [Metformin, N,N-dimethylimidodicarbonimidic diamide]?
Mild gastrointestinal symptoms (diarrhoea, nausea, vomiting, loss of appetite), frequency ([1]; especially during the initial treatment period): > 1/10; Metallic taste, frequency ([1]; worded 'Common' within the Very Rare paragraph): 3%

Which results are given for `Cc1ccc(-c2cc(C(F)(F)F)nn2-c2ccc(S(N)(=O)=O)cc2)cc1` [Celecoxib, 4-[5-(4-methylphenyl)-3-(trifluoromethyl)pyrazol-1-yl]benzenesulfonamide]?
Diarrhoea, frequency ([1]; listed as common): 4-10%; Headache, frequency ([1]; listed as common): 10-15%; Hypertension, frequency ([1]; listed as common): 2-12%; Nausea, frequency ([1]; listed as common): 3-7%; Gastrointestinal haemorrhage, frequency ([1]; listed as serious): less than 0.1%; Gastrointestinal perforation, frequency ([1]; listed as serious): less than 0.1%; Thrombosis, frequency ([1]; listed as serious): 1.2%

With `C#Cc1cccc(Nc2ncnc3cc(OCCOC)c(OCCOC)cc23)c1` [Tarceva] as the compound, how does the “Repeat PET CT” value ([2]; 1 Apr. 2015, on Tarceva) read?
Its value is “new right para-aortic node with high avidity”.

And the “Repeat PET CTs” value ([2]; 12 Jul. 2011 to 5 Nov. 2013, Tarceva 150mg once daily from 2 Jun. 2011)?
The value was “remission of the cancer”.

With [Pt(dmba)(aza-N1)(dmso)] complex 1 as the compound, how does the “IC50 relative to cisplatin” value [5] read?
The value was “lower IC50 than cisplatin”.

— patent US20200197335A1, “CANCER THERAPEUTIC” (priority 2017, published 2020)
